Assay results from the NIST ThermoML archive (doi:10.1016/j.jct.2015.05.006).
Numbers after ± are expanded uncertainties.

How the values were obtained:
[1] = relative permittivity at various frequencies (dimensionless); xn = mol fraction of the nth substance listed; conditions: Liquid, Frequency=1 MHz, Parallel plate capacitor
[2] = xn = mol fraction of the nth substance listed; conditions: Liquid, Vibrating tube method

COCCOC [1,2-dimethoxyethane] + C1CCCCC1
96.6 kPa
Conditions	mass density, [2] [kg/m3]	relative permittivity, [1]
288.15 K, x2 = 0	872.06 ± 1	7.41 ± 0.07
288.15 K, x2 = 0.0459	–	7.02 ± 0.07
288.15 K, x2 = 0.0497	865.63 ± 1	–
288.15 K, x2 = 0.1021	859.14 ± 1	–
288.15 K, x2 = 0.1034	–	6.56 ± 0.07
288.15 K, x2 = 0.1974	847.96 ± 1	–
288.15 K, x2 = 0.2009	–	5.84 ± 0.06
288.15 K, x2 = 0.3013	–	5.17 ± 0.05
288.15 K, x2 = 0.3031	836.42 ± 1	–
288.15 K, x2 = 0.4026	826.35 ± 1	–
288.15 K, x2 = 0.4027	–	4.55 ± 0.05
288.15 K, x2 = 0.4967	817.52 ± 1	–
288.15 K, x2 = 0.5031	–	3.99 ± 0.04
288.15 K, x2 = 0.5998	808.62 ± 1	3.51 ± 0.04
288.15 K, x2 = 0.6961	801.06 ± 1	–
288.15 K, x2 = 0.7015	–	3.06 ± 0.03
288.15 K, x2 = 0.7953	–	2.69 ± 0.03
288.15 K, x2 = 0.8006	793.78 ± 1	–
288.15 K, x2 = 0.9017	–	2.33 ± 0.02
288.15 K, x2 = 0.9033	787.7 ± 1	–
288.15 K, x2 = 0.9494	–	2.19 ± 0.02
288.15 K, x2 = 0.9514	785.33 ± 1	–
298.15 K, x2 = 0	861.17 ± 1	7.07 ± 0.07
298.15 K, x2 = 0.0446	855.02 ± 1	–
298.15 K, x2 = 0.0475	–	6.7 ± 0.07
298.15 K, x2 = 0.0978	848.89 ± 1	–
298.15 K, x2 = 0.098	–	6.31 ± 0.06
298.15 K, x2 = 0.1963	837.39 ± 1	–
298.15 K, x2 = 0.2057	–	5.58 ± 0.06
298.15 K, x2 = 0.3034	–	4.96 ± 0.05
298.15 K, x2 = 0.3038	825.79 ± 1	–
298.15 K, x2 = 0.3952	–	4.43 ± 0.04
298.15 K, x2 = 0.4024	815.96 ± 1	–
298.15 K, x2 = 0.5013	806.83 ± 1	–
298.15 K, x2 = 0.5077	–	3.84 ± 0.04
298.15 K, x2 = 0.6014	–	3.41 ± 0.03
298.15 K, x2 = 0.6054	798.09 ± 1	–
298.15 K, x2 = 0.7018	790.78 ± 1	–
298.15 K, x2 = 0.7093	–	2.96 ± 0.03
298.15 K, x2 = 0.7994	–	2.63 ± 0.03
298.15 K, x2 = 0.8023	784.01 ± 1	–
298.15 K, x2 = 0.8965	778.59 ± 1	–
298.15 K, x2 = 0.9016	–	2.3 ± 0.02
298.15 K, x2 = 0.9498	776 ± 1	–
298.15 K, x2 = 0.952	–	2.16 ± 0.02
308.15 K, x2 = 0	850.13 ± 1	6.75 ± 0.07
308.15 K, x2 = 0.0454	844.13 ± 1	–
308.15 K, x2 = 0.0456	–	6.42 ± 0.06
308.15 K, x2 = 0.0969	838.11 ± 1	–
308.15 K, x2 = 0.0976	–	6.05 ± 0.06
308.15 K, x2 = 0.1954	826.9 ± 1	–
308.15 K, x2 = 0.1983	–	5.41 ± 0.05
308.15 K, x2 = 0.299	–	4.83 ± 0.05
308.15 K, x2 = 0.2993	815.83 ± 1	–
308.15 K, x2 = 0.3959	–	4.29 ± 0.04
308.15 K, x2 = 0.4037	805.56 ± 1	–
308.15 K, x2 = 0.4993	–	3.77 ± 0.04
308.15 K, x2 = 0.5042	796.44 ± 1	–
308.15 K, x2 = 0.6002	–	3.32 ± 0.03
308.15 K, x2 = 0.6072	787.93 ± 1	–
308.15 K, x2 = 0.6995	781.05 ± 1	–
308.15 K, x2 = 0.7005	–	2.93 ± 0.03
308.15 K, x2 = 0.8004	774.34 ± 1	–
308.15 K, x2 = 0.8012	–	2.58 ± 0.03
308.15 K, x2 = 0.902	–	2.27 ± 0.02
308.15 K, x2 = 0.904	768.62 ± 1	–
308.15 K, x2 = 0.9514	–	2.14 ± 0.02
308.15 K, x2 = 0.9535	766.31 ± 1	–

COCCOC [1,2-dimethoxyethane] + CCCCCC
95.2 kPa
Conditions	mass density, [2] [kg/m3]	relative permittivity, [1]
288.15 K, x2 = 0	872.06 ± 1	7.41 ± 0.07
288.15 K, x2 = 0.0501	857.87 ± 1	–
288.15 K, x2 = 0.0513	–	6.89 ± 0.07
288.15 K, x2 = 0.0904	–	6.46 ± 0.06
288.15 K, x2 = 0.1049	842.87 ± 1	–
288.15 K, x2 = 0.1999	–	5.58 ± 0.06
288.15 K, x2 = 0.2992	–	4.85 ± 0.05
288.15 K, x2 = 0.2999	794.19 ± 1	–
288.15 K, x2 = 0.4004	–	4.19 ± 0.04
288.15 K, x2 = 0.4059	770.33 ± 1	–
288.15 K, x2 = 0.4961	751.31 ± 1	–
288.15 K, x2 = 0.4983	–	3.65 ± 0.04
288.15 K, x2 = 0.6001	–	3.17 ± 0.03
288.15 K, x2 = 0.6054	729.6 ± 1	–
288.15 K, x2 = 0.694	713.16 ± 1	–
288.15 K, x2 = 0.7004	–	2.77 ± 0.03
288.15 K, x2 = 0.7916	696.41 ± 1	–
288.15 K, x2 = 0.8057	–	2.41 ± 0.02
288.15 K, x2 = 0.9022	–	2.14 ± 0.02
288.15 K, x2 = 0.9035	678.43 ± 1	–
288.15 K, x2 = 0.9509	–	2.02 ± 0.02
288.15 K, x2 = 0.9533	670.87 ± 1	–
298.15 K, x2 = 0	861.17 ± 1	7.07 ± 0.07
298.15 K, x2 = 0.0459	–	6.61 ± 0.07
298.15 K, x2 = 0.0495	846.99 ± 1	–
298.15 K, x2 = 0.0955	–	6.19 ± 0.06
298.15 K, x2 = 0.1011	833.13 ± 1	–
298.15 K, x2 = 0.2009	807.1 ± 1	–
298.15 K, x2 = 0.2013	–	5.36 ± 0.05
298.15 K, x2 = 0.2992	–	4.67 ± 0.05
298.15 K, x2 = 0.3031	782.87 ± 1	–
298.15 K, x2 = 0.398	–	4.07 ± 0.04
298.15 K, x2 = 0.4027	760.92 ± 1	–
298.15 K, x2 = 0.4977	740.86 ± 1	–
298.15 K, x2 = 0.4984	–	3.53 ± 0.04
298.15 K, x2 = 0.5959	721.71 ± 1	–
298.15 K, x2 = 0.6014	–	3.08 ± 0.03
298.15 K, x2 = 0.6972	703.06 ± 1	–
298.15 K, x2 = 0.7019	–	2.7 ± 0.03
298.15 K, x2 = 0.8016	–	2.38 ± 0.02
298.15 K, x2 = 0.8051	684.57 ± 1	–
298.15 K, x2 = 0.8985	670 ± 1	–
298.15 K, x2 = 0.9031	–	2.11 ± 0.02
298.15 K, x2 = 0.9477	–	2.01 ± 0.02
308.15 K, x2 = 0	850.13 ± 1	6.75 ± 0.07
308.15 K, x2 = 0.0457	837.34 ± 1	–
308.15 K, x2 = 0.0494	–	6.3 ± 0.06
308.15 K, x2 = 0.0927	824.63 ± 1	–
308.15 K, x2 = 0.0967	–	5.9 ± 0.06
308.15 K, x2 = 0.1938	–	5.18 ± 0.05
308.15 K, x2 = 0.2001	797.09 ± 1	–
308.15 K, x2 = 0.2984	773.76 ± 1	–
308.15 K, x2 = 0.3011	–	4.47 ± 0.05
308.15 K, x2 = 0.3939	752.46 ± 1	–
308.15 K, x2 = 0.4025	–	3.91 ± 0.04
308.15 K, x2 = 0.4989	–	3.44 ± 0.03
308.15 K, x2 = 0.5082	728.75 ± 1	–
308.15 K, x2 = 0.5955	711.88 ± 1	–
308.15 K, x2 = 0.6018	–	3 ± 0.03
308.15 K, x2 = 0.6927	694.24 ± 1	–
308.15 K, x2 = 0.699	–	2.66 ± 0.03
308.15 K, x2 = 0.7982	–	2.36 ± 0.02
308.15 K, x2 = 0.8036	675.37 ± 1	–
308.15 K, x2 = 0.901	–	2.09 ± 0.02
308.15 K, x2 = 0.9023	660.16 ± 1	–
308.15 K, x2 = 0.9506	–	1.99 ± 0.02
308.15 K, x2 = 0.9509	653.01 ± 1	–
